Read-outs that look alike come from different tables or passages of the source.
Experiments:
GDF8 = test: AlphaScreen SureFire p-SMAD3 (Ser423/425) assay, GDF8-stimulated cells; format: cell-based
Method in brief: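 A SureFire AlphaScreen assay measured phosphorylation of endogenous SMAD-3 at Ser423/425 in cell lysates. Cells were treated with three-fold serially diluted compounds in DMSO for about 10 minutes, then stimulated with GDF8. After medium removal, cells were lysed in 1× Lysis Buffer (about 25 μL) with gentle shaking for 5-10 minutes.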

TGF-β = test: AlphaScreen SureFire p-SMAD3 (Ser423/425) assay, TGF-β-stimulated cells; format: cell-based; conditions: Mus musculus
Method in brief: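 The p-SMAD-3 (Ser423/425) SureFire assay measured phosphorylation of endogenous SMAD-3 in cell lysates. Cells were plated overnight in collagen-coated plates, exposed to three-fold serially diluted compounds for about 10 minutes, then stimulated with TGFβ. Lysates (5 μL) received acceptor bead mix for 2 hours, then donor beads for 1½ hours before AlphaScreen reading.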

[1] = Mus musculus, MPC-11, p-SMAD3 (Ser423/425) AlphaScreen in cell lysate, MPC11, GDF8 stimulation, read-out: GDF8: inhibition of GDF8 signaling, GDF pSMAD (MPC11)
[2] = p-SMAD3 (Ser423/425) AlphaScreen in cell lysate, MPC-11, TGF-β stimulation, read-out: TGF-β: inhibition of TGF-β signaling, TGF-β pSMAD (MPC-11)
[3] = Mus musculus, MPC-11, read-out: GDF8: inhibition of GDF8 signaling, GDF pSMAD (MPC11), p-SMAD3 (Ser423/425) AlphaScreen in cell lysate, GDF8 stimulation
[4] = MPC-11, read-out: TGF-β: inhibition of TGF-β signaling, TGF-β pSMAD (MPC-11), p-SMAD3 (Ser423/425) AlphaScreen in cell lysate, TGF-β stimulation

IC50 (GDF8; [1]) [nM] | IC50 (TGF-β; [2]) [nM] | SMILES | IC50 (GDF8; [3]) [nM] | IC50 (TGF-β; [4]) [nM] | IC50 (GDF8; read-out: GDF8: inhibition of GDF8 signaling, GDF pSMAD (MPC11), p-SMAD3 (Ser423/425) AlphaScreen in cell lysate, GDF8 stimulation) [nM]
100 to 1000 | > 1000 | Cc1cc(F)ccc1-c1nc2n(c1-c1ccc3ncnn3c1)CCC2 [Compound 54, 6-(2-(4-fluoro-2-methylphenyl)-6,7-dihydro-5H-pyrrolo[1,2-a]imidazol-3-yl)-[1,2,4]triazolo[1,5-a]pyridine] | – | – | –
< 50 | < 50 | c1ccc(-c2nc3n(c2-c2ccc4nccn4c2)CCC3)nc1 [Compound 370, 6-(2-(pyridin-2-yl)-6,7-dihydro-5H-pyrrolo[1,2-a]imidazol-3-yl)imidazo[1,2-a]pyridine] | – | – | –
< 50 | 50 to 100 | Fc1ccc(-c2nc3occn3c2-c2ccc3nccn3c2)c(F)c1 [Compound 159, 6-(2,4-difluorophenyl)-5-(imidazo[1,2-a]pyridin-6-yl)imidazo[2,1-b]oxazole] | – | – | –
100 to 1000 | > 1000 | Cc1c(-c2nc3n(c2-c2ccc4ncsc4c2)CCC3)ccc(F)c1F [Compound 261, 6-(2-(3,4-difluoro-2-methylphenyl)-6,7-dihydro-5H-pyrrolo[1,2-a]imidazol-3-yl)benzo[d]thiazole] | – | – | –
50 to 100 | 100 to 1000 | FC(F)(F)c1cccc(-c2nc3n(c2-c2ccc4cn[nH]c4c2)CCC3)c1 [Compound 182, 6-(2-(3-(trifluoromethyl)phenyl)-6,7-dihydro-5H-pyrrolo[1,2-a]imidazol-3-yl)-1H-indazole] | – | – | –
> 1000 | > 1000 | Fc1ccc(-c2nc3n(c2-c2ccc4nccn4c2)CC2(CCCC2)C3)cc1 [Compound 72, 2′-(4-fluorophenyl)-3′-(imidazo[1,2-a]pyridin-6-yl)-5′H,7′H-spiro[cyclopentane-1,6′-pyrrolo[1,2-a]imidazole]] | – | – | –
100 to 1000 | > 1000 | Fc1cc(-c2nc3n(c2-c2ccc4nccnc4c2)CCC3)cc(F)c1F [Compound 227, 6-(2-(3,4,5-trifluorophenyl)-6,7-dihydro-5H-pyrrolo[1,2-a]imidazol-3-yl)quinoxaline] | – | – | –
100 to 1000 | > 1000 | Cc1c(-c2nc3n(c2-c2ccc4ncnn4c2)CCC3)ccc(F)c1F [Compound 44, 6-(2-(3,4-difluoro-2-methylphenyl)-6,7-dihydro-5H-pyrrolo[1,2-a]imidazol-3-yl)-[1,2,4]triazolo[1,5-a]pyridine] | – | – | –
< 50 | < 50 | Fc1ccc(Cl)cc1-c1nc2n(c1-c1ccc3nccnc3c1)CCC2 [Compound 337, 6-(2-(5-chloro-2-fluoropheny)-6,7-dihydro-5H-pyrrolo[1,2-a]imidazol-3-yl)quinoxaline] | – | – | –
100 to 1000 | > 1000 | Fc1cc(Cl)c(-c2nc3n(c2-c2ccc4ncccc4c2)CCC3)cc1F [Compound 290, 6-(2-(2-chloro-4,5-difluorophenyl)-6,7-dihydro-5H-pyrrolo[1,2-a]imidazol-3-yl)quinoline] | – | – | –
> 1000 | > 1000 | Fc1cc(-c2nc3n(c2-c2ccc4nccnc4c2)CCC3)c(F)cc1Cl [Compound 241, 6-(2-(4-chloro-2,5-difluorophenyl)-6,7-dihydro-5H-pyrrolo[1,2-a]imidazol-3-yl)quinoxaline] | – | – | –
100 to 1000 | 100 to 1000 | Fc1cc(F)c(F)c(-c2nc3n(c2-c2ccc4nccnc4c2)CCC3)c1 [Compound 238, 6-(2-(2,3,5-trifluorophenyl)-6,7-dihydro-5H-pyrrolo[1,2-a]imidazol-3-yl)quinoxaline] | – | – | –
> 1000 | > 1000 | CN1CCC2Cn3c(nc(-c4ccc(F)cc4)c3-c3ccc4ncnn4c3)C2C1 (stereo not drawn) [Compound 89, 3-([1,2,4]triazolo[1,5-a]pyridin-6-yl)-2-(4-fluorophenyl)-8-methyl-5a,6,7,8,9,9a-hexahydro-5H-imidazo[1′,2′:1,2]pyrrolo[3,4-c]pyridine] | – | – | –
< 50 | < 50 | Cc1ccc(F)c(-c2nc3n(c2-c2ccc4nccnc4c2)CCC3)c1 [Compound 357, 6-(2-(2-fluoro-5-methylphenyl)-6,7-dihydro-5H-pyrrolo[1,2-a]imidazol-3-yl)quinoxaline] | – | – | –
> 1000 | > 1000 | Cc1c(F)ccc(-c2nc3n(c2-c2ccc4nccnc4c2)CCC3)c1Cl [Compound 314, 6-(2-(2-chloro-4-fluoro-3-methylphenyl)-6,7-dihydro-5H-pyrrolo[1,2-a]imidazol-3-yl)quinoxaline] | – | – | –

Further lines, the molecule ahead of its results:

SMILES | IC50 (GDF8; [1]) [nM] | IC50 (TGF-β; [2]) [nM] | IC50 (GDF8; [3]) [nM] | IC50 (TGF-β; [4]) [nM] | IC50 (GDF8; read-out: GDF8: inhibition of GDF8 signaling, GDF pSMAD (MPC11), p-SMAD3 (Ser423/425) AlphaScreen in cell lysate, GDF8 stimulation) [nM]
Cc1cc(-c2nc3n(c2-c2ccc4cn[nH]c4c2)CCC3)c(F)cc1Cl [Compound 252, 6-(2-(4-chloro-2-fluoro-5-methylphenyl)-6,7-dihydro-5H-pyrrolo[1,2-a]imidazol-3-yl)-1H-indazole] | > 1000 | > 1000 | – | – | –
Fc1cc(F)cc(-c2nc3n(c2-c2ccc4ncsc4c2)CCC3)c1 [Compound 232, 6-(2-(3,5-difluorophenyl)-6,7-dihydro-5H-pyrrolo[1,2-a]imidazol-3-yl)benzo[d]thiazole] | – | – | 100 to 1000 | > 1000 | –
Cc1cc(F)ccc1-c1nc2n(c1-c1ccc3[nH]ncc3c1)CCC2 [Compound 292, 5-(2-(4-fluoro-2-methylphenyl)-6,7-dihydro-5H-pyrrolo[1,2-a]imidazol-3-yl)-1H-indazole] | – | – | > 1000 | > 1000 | –
Cc1cccc(-c2nc3occn3c2-c2ccc3[nH]ncc3c2)c1 [Compound 139, 6-(m-tolyl)-5-(1H-indazol-5-yl)imidazo[2,1-b]oxazole] | < 50 | < 50 | – | – | –
Clc1ccc(Cl)c(-c2nc3n(c2-c2ccc4nccn4c2)CCC3)c1 [Compound 93, 6-(2-(2,5-dichlorophenyl)-6,7-dihydro-5H-pyrrolo[1,2-a]imidazol-3-yl)imidazo[1,2-a]pyridine] | – | – | < 50 | 50 to 100 | –
Cc1cccc(-c2nc3occn3c2-c2ccc3nccnc3c2)c1 [Compound 142, 5-(quinoxalin-6-yl)-6-(m-tolyl)imidazo[2,1-b]oxazole] | < 50 | < 50 | – | – | –
Fc1cc(F)c(-c2nc3n(c2-c2ccc4[nH]ncc4c2)CCC3)cc1F [Compound 220, 5-(2-(2,4,5-trifluorophenyl)-6,7-dihydro-5H-pyrrolo[1,2-a]imidazol-3-yl)-1H-indazole] | 50 to 100 | 100 to 1000 | – | – | –
Fc1ccc(-c2nc3n(c2-c2ccc4nccnc4c2)CCC3)cc1 [Compound 178, 6-(2-(4-fluorophenyl)-6,7-dihydro-5H-pyrrolo[1,2-a]imidazol-3-yl)quinoxaline] | – | – | 100 to 1000 | > 1000 | –
Cc1cc(-c2nc3n(c2-c2ccc4ncccc4c2)CCC3)c(Cl)cc1F [Compound 319, 6-(2-(2-chloro-4-fluoro-5-methylphenyl)-6,7-dihydro-5H-pyrrolo[1,2-a]imidazol-3-yl)quinoline] | – | – | – | > 1000 | 100 to 1000
Cc1cccc(-c2nc3occn3c2-c2ccc3cn[nH]c3c2)c1 [Compound 140, 6-(m-tolyl)-5-(1H-indazol-6-yl)imidazo[2,1-b]oxazole] | < 50 | < 50 | – | – | –
Clc1cccc(-c2nc3n(c2-c2ccc4ncsc4c2)CCC3)c1 [Compound 191, 6-(2-(3-chlorophenyl)-6,7-dihydro-5H-pyrrolo[1,2-a]imidazol-3-yl)benzo[d]thiazole] | – | – | < 50 | 100 to 1000 | –
Fc1ccc(-c2nc3n(c2-c2ccc4[nH]ncc4c2)CC2(CCCC2)C3)cc1 [Compound 324, 2′-(4-fluorophenyl)-3′-(1H-indazol-5-yl)-5′H,7′H-spiro[cyclopentane-1,6′-pyrrolo[1,2-a]imidazole]] | – | – | > 1000 | > 1000 | –
NC(=O)c1cnc2ccc(-c3c(-c4cc(F)c(F)c(F)c4)nc4n3CCC4)cn12 [Compound 53, 6-(2-(3,4,5-trifluorophenyl)-6,7-dihydro-5H-pyrrolo[1,2-a]imidazol-3-yl)imidazo[1,2-a]pyridine-3-carboxamide] | – | – | 50 to 100 | 50 to 100 | –
Cc1cc(-c2nc3n(c2-c2ccc4ncsc4c2)CCC3)c(F)cc1F [Compound 269, 6-(2-(2,4-difluoro-5-methylphenyl)-6,7-dihydro-5H-pyrrolo[1,2-a]imidaozl-3-yl)benzo[d]thiazole] | < 50 | 50 to 100 | – | – | –
COc1c(C)cc(-c2nc3n(c2-c2ccc4nccnc4c2)CCC3)cc1C [Compound 258, 6-(2-(4-methoxy-3,5-dimethylphenyl)-6,7-dihydro-5H-pyrrolo[1,2-a]imidaol-3-yl)quinoxaline] | > 1000 | > 1000 | – | – | –
Cc1cc(F)c(-c2nc3n(c2-c2ccc4ncsc4c2)CCC3)cc1F [Compound 285, 6-(2-(2,5-difluoro-4-methylphenyl)-6,7-dihydro-5H-pyrrolo[1,2-a]imidazol-3-yl)benzo[d]thiazole] | > 1000 | > 1000 | – | – | –
Fc1cc(F)cc(-c2nc3n(c2-c2ccc4cn[nH]c4c2)CCC3)c1 [Compound 231, 6-(2-(3,5-difluorophenyl)-6,7-dihydro-5H-pyrrolo[1,2-a]imidazol-3-yl)-1H-indazole] | – | – | 100 to 1000 | > 1000 | –
Fc1cccc(-c2nc3n(c2-c2ccc4nccnc4c2)CCC3)c1 [Compound 196, 6-(2-(3-fluorophenyl)-6,7-dihydro-5H-pyrrolo[1,2-a]imidazol-3-yl)quinoxaline] | – | – | 100 to 1000 | > 1000 | –

Reference: patent US10696693B2, “Fused imidazole derivatives as TGF-beta inhibitors” (Rigel Pharmaceuticals, Inc., priority 2014, dated 2020)
